Assay results reported in US11109538B2, “Method for producing galanthamine by a plant and electrical stimulation device” (Industrial Technology Research Institute, priority 2017, dated 2021).

Tested on: Lycoris aurea
Test: Galanthamine release of plants subjected to chemical inducer treatment (LC-MS of lyophilized medium)
Assay type: in vivo
Details: for Amounts of galanthamine released into the medium: MS medium with 25 μM chemical inducer, whole plants of Lycoris aurea
Method: MS mediums containing chemical inducers (chitin (CA), salicylic acid (SA) and methyl jasmonate (MJ)) (final concentration of the chemical inducer is 25 μM) were prepared. Since the chemical inducers could not be high-strength autoclaved, after the preparations of the chemical inducers at room temperature were completed, sterilization by filtration was performed on the chemical inducers in a laminar flow. In the blank group, the medium contained no agent.
Healthy plants of Lycoris aurea with leaves and root with a bulb diameter of 0.6-0.8 cm were selected and withered epidermis on the bulb thereof was removed. The plant mentioned above was placed in a test tube having MS medium containing a chemical inducer and cultured under an illumination of 3000-4000 Lux with illumination time 16 hours an dark time 8 hours at an ambient temperature of 25-27° C.
30 mL of medium was recovered on the Day 0, Day 3, Day 7, Day 14, Day 28 and Day 35 of the culturing. The recovered medium was lyophilized to form a powder. A liquid chromatography-mass spectrometry analysis was performed on the obtained powder to determine the content of galanthamine therein to investigate the effect of the chemical stimulation treatment mentioned above on the plant that produces galanthamine and releases it into the medium.

Row | Compound | Amounts of galanthamine released into the medium (Day 0 of culturing) [ppm] | Amounts of galanthamine released into the medium (Day 3 of culturing) [ppm] | Amounts of galanthamine released into the medium (Day 7 of culturing) [ppm] | Amounts of galanthamine released into the medium (Day 14 of culturing) [ppm] | Amounts of galanthamine released into the medium (Day 28 of culturing) [ppm] | Amounts of galanthamine released into the medium (Day 35 of culturing) [ppm] | Effect on production and release of galanthamine for the plant (comparison of chemical inducers) (Table 2 and FIG. 7, 25 μM chemical inducer, Lycoris aurea)
1 | CC/C=C\CC1C(=O)CCC1CC(=O)OC (centres unmarked) [Methyl jasmonate, methyl jasmonate] | 0 | 0.0153 | 0.0312 | 0.0066 | 2.72 | 0.9 | best effect
2 | O=C(O)c1ccccc1O [Salicylic acid, salicylic acid] | 0 | 0.0183 | 0.0077 | 0.0142 | 0.36 | 1.01 | –
3 | chitin | 0 | 0.0015 | 0.0001 | 0.74 | – | – | –
